Laboratory results: patent publication US6737383B1, “Herbicidal oxadiazolidines” (priority 1999, dated 2004)

Experiments:
wheat = experiment: Test B pre/postemergence wheat; type: in vivo, Triticum aestivum
In short: (§1)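 Herbicidal effect was estimated by eye on a ten-point control scale after plants spent twelve to sixteen days in a greenhouse following soil or foliar treatment. Foliar sprays targeted plants at one to four leaves; all doses were formulated in a non-phytotoxic solvent with surfactant.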

morningglory = experiment: Test B pre/postemergence morningglory; type: in vivo, Ipomoea hederacea
In short: as §1

smallflower flatsedge = experiment: Test B flood test smallflower flatsedge; type: in vivo, Cyperus difformis
In short: (§2)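 Plants were grown to the 2-leaf stage before treatment with test chemical, then held in a greenhouse for twelve to sixteen days. Injury was visually rated against untreated controls on a 0–10 scale, where 0 is no effect and 10 is complete control.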

bedstraw = experiment: Test B pre/postemergence bedstraw; type: in vivo, Galium aparine
In short: as §1

giant foxtail = experiment: Test B pre/postemergence giant foxtail; type: in vivo, Setaria faberii
In short: as §1

rice = experiment: Test B flood test rice; type: in vivo, Oryza sativa
In short: as §2

purple nutsedge = experiment: Test B pre/postemergence purple nutsedge; type: in vivo, Cyperus rotundus
In short: as §1

pigweed = experiment: Test B pre/postemergence pigweed; type: in vivo, Amaranthus retroflexus
In short: as §1

corn = experiment: Test B pre/postemergence corn; type: in vivo, Zea mays
In short: as §1

blackgrass = experiment: Test B pre/postemergence blackgrass; type: in vivo, Alopecurus myosuroides
In short: as §1

duck salad = experiment: Test B flood test duck salad; type: in vivo, Heteranthera limosa
In short: as §2

wild oat = experiment: Test B pre/postemergence wild oat; type: in vivo, Avena fatua
In short: as §1

surinam grass = experiment: Test B pre/postemergence surinam grass; type: in vivo, Brachiaria decumbens
In short: as §1

crabgrass = experiment: Test B pre/postemergence crabgrass; type: in vivo, Digitaria sanguinalis
In short: as §1

velvetleaf = experiment: Test B pre/postemergence velvetleaf; type: in vivo, Abutilon theophrasti
In short: as §1

soybean = experiment: Test B pre/postemergence soybean; type: in vivo, Glycine max
In short: as §1

[1] = Postemergence, Rate 125 g/ha, scale 0 to 10, 0 is no effect, 10 is complete control
[2] = Preemergence, Rate 62 g/ha, scale of 0 to 10 where 0 is no effect and 10 is complete control
[3] = Preemergence, Rate 250 g/ha, scale of 0 to 10 where 0 is no effect and 10 is complete control
[4] = Preemergence, Rate 500 g/ha, scale of 0 to 10 where 0 is no effect and 10 is complete control
[5] = Rate 62 g/ha, Postemergence, scale 0 to 10 (0 no effect, 10 complete control)
[6] = Rate 500 g/ha, Postemergence, scale 0 to 10, 0 no effect, 10 complete control
[7] = Rate 62 g/ha, headed Pre-emergence (flood test species), scale 0 to 10 (0 no effect, 10 complete control)
[8] = Rate 125 g/ha, Pre-emergence, flood test species, scale 0 to 10 where 0 is no effect and 10 is complete control
[9] = Rate 250 g/ha, Pre-emergence, flood-test species, scale 0 to 10, 0 is no effect, 10 is complete control
[10] = Rate 500 g/ha, Pre-emergence, flood test species, scale 0 to 10 (0 no effect, 10 complete control)
[11] = Rate 250 g/ha, Postemergence, scale of 0 to 10 where 0 is no effect and 10 is complete control

Cc1c(-n2c(=O)on(C(=O)N(c3ccc(Cl)cc3)C(C)C)c2=O)ccc2ccccc12 [Compound 336]
Plant response rating, Wheat (wheat; [1]): 0 | Wheat plant response rating (wheat; [2]): 0 | Wheat plant response rating (0 to 10 scale) (wheat; Preemergence, Rate 125 g/ha): 0 | Wheat plant response rating (wheat; [3]): 0 | Wheat plant response rating (wheat; [4]): 0 | Wheat plant response rating (wheat; [5]): 0 | Plant response rating, Wheat (wheat; [6]): 0 | Plant response rating, Morningglory (morningglory; [1]): 0 | Morningglory plant response rating (morningglory; [2]): 0 | Morningglory plant response rating (0 to 10 scale) (morningglory; Preemergence, Rate 125 g/ha): 0 | Morningglory plant response rating (morningglory; [3]): 0 | Morningglory plant response rating (morningglory; [4]): 0 | Morningglory plant response rating (morningglory; [5]): 0 | Plant response rating, Morningglory (morningglory; [6]): 0 | S. Flatsedge plant response rating (smallflower flatsedge; [7]): 0 | S. Flatsedge plant response rating (smallflower flatsedge; [8]): 0 | S. Flatsedge plant response rating (smallflower flatsedge; [9]): 0 | S. Flatsedge plant response rating (smallflower flatsedge; [10]): 0 | Plant response rating, Bedstraw (bedstraw; [1]): 0 | Bedstraw plant response rating (bedstraw; [2]): 0 | Bedstraw plant response rating (0 to 10 scale) (bedstraw; Preemergence, Rate 125 g/ha): 0 | Bedstraw plant response rating (bedstraw; [3]): 0 | Bedstraw plant response rating (bedstraw; [4]): 0 | Bedstraw plant response rating (bedstraw; [5]): 0 | Plant response rating, Bedstraw (bedstraw; [11]): 0 | Plant response rating, Bedstraw (bedstraw; [6]): 0 | Plant response rating, Giant foxtail (giant foxtail; [1]): 0 | Giant foxtail plant response rating (giant foxtail; [2]): 0 | Giant foxtail plant response rating (0 to 10 scale) (giant foxtail; Preemergence, Rate 125 g/ha): 0 | Giant foxtail plant response rating (giant foxtail; [3]): 0 | Giant foxtail plant response rating (giant foxtail; [4]): 0 | Giant foxtail plant response rating (giant foxtail; [5]): 0 | Plant response rating, Giant foxtail (giant foxtail; [6]): 0 | Rice plant response rating (rice; [7]): 0 | Rice plant response rating (rice; [8]): 0 | Rice plant response rating (rice; [9]): 0 | Rice plant response rating (rice; [10]): 0 | Plant response rating, Nutsedge (purple nutsedge; [1]): 0 | Nutsedge plant response rating (purple nutsedge; [2]): 0 | Nutsedge plant response rating (0 to 10 scale) (purple nutsedge; Preemergence, Rate 125 g/ha): 0 | Nutsedge plant response rating (purple nutsedge; [3]): 0 | Nutsedge plant response rating (purple nutsedge; [4]): 0 | Nutsedge plant response rating (purple nutsedge; [5]): 0 | Plant response rating, Nutsedge (purple nutsedge; [6]): 0 | Plant response rating, Redroot pigweed (pigweed; [1]): 0 | Redroot pigweed plant response rating (pigweed; [2]): 0 | Redroot pigweed plant response rating (0 to 10 scale) (pigweed; Preemergence, Rate 125 g/ha): 0 | Redroot pigweed plant response rating (pigweed; [3]): 0 | Redroot pigweed plant response rating (pigweed; [4]): 0 | Redroot pigweed plant response rating (pigweed; [5]): 0 | Plant response rating, Redroot pigweed (pigweed; [6]): 0 | Plant response rating, Corn (corn; [1]): 0 | Corn plant response rating (corn; [2]): 0 | Corn plant response rating (0 to 10 scale) (corn; Preemergence, Rate 125 g/ha): 0 | Corn plant response rating (corn; [3]): 0 | Corn plant response rating (corn; [4]): 0 | Corn plant response rating (corn; [5]): 0 | Plant response rating, Corn (corn; [6]): 0 | Plant response rating, Blackgrass (blackgrass; [1]): 0 | Blackgrass plant response rating (blackgrass; [2]): 0 | Blackgrass plant response rating (0 to 10 scale) (blackgrass; Preemergence, Rate 125 g/ha): 0 | Blackgrass plant response rating (blackgrass; [3]): 0 | Blackgrass plant response rating (blackgrass; [4]): 0 | Blackgrass plant response rating (blackgrass; [5]): 0 | Plant response rating, Blackgrass (blackgrass; [11]): 0 | Plant response rating, Blackgrass (blackgrass; [6]): 0 | Ducksalad plant response rating (duck salad; [7]): 0 | Ducksalad plant response rating (duck salad; [8]): 0 | Ducksalad plant response rating (duck salad; [9]): 0 | Ducksalad plant response rating (duck salad; [10]): 0 | Plant response rating, Wild oats (wild oat; [1]): 0 | Wild oats plant response rating (wild oat; [2]): 0 | Wild oats plant response rating (0 to 10 scale) (wild oat; Preemergence, Rate 125 g/ha): 0 | Wild oats plant response rating (wild oat; [3]): 0 | Wild oats plant response rating (wild oat; [4]): 0 | Wild oats plant response rating (wild oat; [5]): 0 | Plant response rating, Wild oats (wild oat; [6]): 0 | Plant response rating, B. signalgrass (surinam grass; [1]): 0 | B. signalgrass plant response rating (surinam grass; [2]): 0 | B. signalgrass plant response rating (0 to 10 scale, 0 is no effect, 10 is complete control) (surinam grass; Preemergence, Rate 125 g/ha): 0 | B. signalgrass plant response rating (surinam grass; [3]): 0 | B. signalgrass plant response rating (surinam grass; [4]): 0 | B. signalgrass plant response rating (surinam grass; [5]): 0 | Plant response rating, B. signalgrass (surinam grass; [11]): 0 | Plant response rating, B. signalgrass (surinam grass; [6]): 0 | Plant response rating, Crabgrass (crabgrass; [1]): 0 | Crabgrass plant response rating (crabgrass; [2]): 0 | Crabgrass plant response rating (0 to 10 scale) (crabgrass; Preemergence, Rate 125 g/ha): 0 | Crabgrass plant response rating (crabgrass; [3]): 0 | Crabgrass plant response rating (crabgrass; [4]): 0 | Crabgrass plant response rating (crabgrass; [5]): 0 | Plant response rating, Crabgrass (crabgrass; [6]): 0 | Plant response rating, Velvetleaf (velvetleaf; [1]): 0 | Velvetleaf plant response rating (velvetleaf; [2]): 0 | Velvetleaf plant response rating (0 to 10 scale) (velvetleaf; Preemergence, Rate 125 g/ha): 0 | Velvetleaf plant response rating (velvetleaf; [3]): 0 | Velvetleaf plant response rating (velvetleaf; [4]): 0 | Velvetleaf plant response rating (velvetleaf; [5]): 0 | Plant response rating, Velvetleaf (velvetleaf; [6]): 0 | Plant response rating, Soybean (soybean; [1]): 1 | Soybean plant response rating (soybean; [2]): 0 | Soybean plant response rating (0 to 10 scale) (soybean; Preemergence, Rate 125 g/ha): 0 | Soybean plant response rating (soybean; [3]): 0 | Soybean plant response rating (soybean; [4]): 0 | Soybean plant response rating (soybean; [5]): 1 | Plant response rating, Soybean (soybean; [6]): 2
